Inconclusive results are not listed. Activity calls are given as the source filed them.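 Rule for the calls: active = fitted curve crosses a set inhibition level at a dose up to twice the top tested dose; inconclusive = flat curve with moderate inhibition, or an unreliable curve fit; inactive = the rest, including signal rising instead of falling.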
Tested on: not listed separately
Test: TNFa-induced NF-kB reporter signal decrease – HEK293 LMP1 reporter cells, dry powder, set 2, selectivity assay for EBV LMP1 NF-kB inhibitor project, dose response (AID 624369)
Conditions: HEK293 LMP1 TES2 NF-kB luciferase reporter, 16 h; at 35 µM (top of the series)

Structure (SMILES) | activity change, negative = inhibition
COc1cccc(S(=O)(=O)N(C)C[C@H]2Oc3cc(C4=CCCCC4)ccc3S(=O)(=O)N([C@@H](C)CO)C[C@@H]2C)c1 | 12% (inactive)
C[C@H]1CN([C@@H](C)CO)C(=O)Cc2cc(NC(=O)Cc3ccccc3)ccc2O[C@H]1CN(C)Cc1ccc(C(F)(F)F)cc1 | 63.2% (inactive)
C[C@H](CO)N1C[C@H](C)[C@H](CN(C)C(=O)NC2CCCCC2)Oc2cc(/C=C/c3ccccc3)ccc2S1(=O)=O | -10.3% (inactive)

Tested on: HEK293 LMP1 TES2 NF-kB luciferase reporter, 16 h
Test: as above
Conditions: not given

Structure (SMILES) | AC35
COc1ccccc1C#Cc1ccc([C@H]2[C@H](C#N)N(C(=O)C3CC3)[C@H]2CO)cc1 | 27 µM
COc1cccc(-c2cccc(-c3nc(C(=O)NCC(F)(F)F)cc4c3[C@H](CCO)N([S@@](=O)C(C)(C)C)C4)c2)c1 | 5.24 µM
O=C(C[C@H]1C[C@@H]2c3cc(NC(=O)c4ccc5c(c4)OCO5)ccc3O[C@@H]2[C@@H](CO)O1)NCc1ccc(Oc2ccccc2)cc1 | 24.6 µM
COc1ccc(S(=O)(=O)N(C)C[C@H]2Oc3ncc(/C=C/c4ccccc4)cc3C(=O)N([C@H](C)CO)C[C@@H]2C)cc1 | 21.9 µM
N#C[C@H]1[C@H](c2ccc(C#Cc3ccccc3F)cc2)[C@@H](CO)N1C(=O)c1cccnc1 | 20.1 µM
Cc1ccc(S(=O)(=O)N(C)C[C@H]2Oc3cc(C#Cc4ccncc4)ccc3S(=O)(=O)N([C@@H](C)CO)C[C@H]2C)cc1 | 16.4 µM
CN(C)c1ccc2c(c1)[C@@H]1C[C@H](CC(=O)NCc3ccc(Oc4ccccc4)cc3)O[C@@H](CO)[C@@H]1O2 | 21.7 µM
O=C(C[C@@H]1CC[C@@H]2[C@H](COC[C@H](O)CN2Cc2ccc3c(c2)OCO3)O1)Nc1ccc(-c2ccccc2)cc1 | 10.7 µM
C[C@H]1CN([C@@H](C)CO)S(=O)(=O)c2ccc(C#Cc3ccncc3)cc2O[C@H]1CN(C)C(=O)Nc1ccc2c(c1)OCO2 | 15.3 µM
COc1ccc(-c2cccc(-c3nc(C(=O)NCC(F)(F)F)cc4c3[C@H](CCO)N([S@@](=O)C(C)(C)C)C4)c2)cc1 | 28 µM
COc1ccccc1C#Cc1cnc2c(c1)C(=O)N([C@H](C)CO)C[C@H](C)[C@@H](CN(C)C(=O)c1ccc3c(c1)OCO3)O2 | 34.3 µM
O=C(C[C@H]1C[C@@H]2c3cc(NS(=O)(=O)c4ccc(F)cc4)ccc3O[C@@H]2[C@@H](CO)O1)NCc1ccc(Oc2ccccc2)cc1 | 16.7 µM
CC(C)(C)[S@@](=O)N1Cc2cc(C(=O)NCCc3ccncc3)nc(-c3cccc(-c4cccnc4)c3)c2[C@H]1CCO | 17.7 µM
Cc1cc(C(=O)Nc2ccc3c(c2)C(=O)N(C)[C@@H]2CC[C@@H](CC(=O)NCc4ccc(-c5ccccc5)cc4)O[C@H]2CO3)no1 | 12.4 µM
CN(C)C(=O)c1cccc(-c2cccc(-c3nc(C(=O)NCc4ccccc4)cc4c3[C@@H](CCO)N([S@](=O)C(C)(C)C)C4)c2)c1 | 10.3 µM
COc1ccccc1C#Cc1ccc2c(c1)O[C@H](CN(C)Cc1cccnc1)[C@H](C)CN([C@H](C)CO)S2(=O)=O | 20.7 µM
CC(C)NC(=O)N1Cc2cc(C(=O)NC3Cc4ccccc4C3)nc(-c3cccc(-c4cccnc4)c3)c2[C@@H]1CCO | 18.5 µM
CN1C(=O)c2cc(NC(=O)c3ccc(C(F)(F)F)cc3)ccc2OC[C@@H]2O[C@@H](CC(=O)NC3Cc4ccccc4C3)CC[C@H]21 | 25.7 µM
C[C@@H](NC(=O)C[C@H]1C[C@@H]2c3cc(NC(=O)c4cccnc4)ccc3O[C@@H]2[C@@H](CO)O1)c1ccccc1 | > 35 µM (inactive)
Cc1cc(C(=O)Nc2ccc3c(c2)C(=O)N(C)[C@H]2CC[C@@H](CC(=O)NCc4ccc(-c5ccccc5)cc4)O[C@H]2CO3)no1 | 13.5 µM
Cc1cc(C(=O)Nc2ccc3c(c2)C(=O)N(C)[C@@H]2CC[C@H](CC(=O)NCc4ccc(-c5ccccc5)cc4)O[C@@H]2CO3)no1 | 6.74 µM
CN(C)c1ccc2c(c1)[C@@H]1C[C@@H](CC(=O)NCc3ccc(Oc4ccccc4)cc3)O[C@H](CO)[C@@H]1O2 | 10.3 µM
CC(C)(C)[S@@](=O)N1Cc2cc(C(=O)NCc3ccccc3F)nc(-c3cccc(-c4cccnc4)c3)c2[C@H]1CCO | 12.7 µM

Structure (SMILES) | AC35
O=C(C[C@H]1C[C@H]2c3cc(NS(=O)(=O)c4ccc(F)cc4)ccc3O[C@H]2[C@H](CO)O1)NCc1ccc(Oc2ccccc2)cc1 | 9.13 µM
COc1ccccc1C#Cc1cnc2c(c1)C(=O)N([C@@H](C)CO)C[C@H](C)[C@@H](CN(C)C(=O)c1ccc3c(c1)OCO3)O2 | 27.9 µM
CC(=O)N(C)C[C@@H]1Oc2cc(C#Cc3ccc(F)cc3)ccc2S(=O)(=O)N([C@H](C)CO)C[C@H]1C | 34 µM
CC(C)NC(=O)N1Cc2cc(C(=O)NC3Cc4ccccc4C3)nc(-c3cccc(-c4cccnc4)c3)c2[C@H]1CCO | 29.1 µM
O=C(C[C@@H]1C[C@H]2c3cc(NS(=O)(=O)c4ccc(F)cc4)ccc3O[C@H]2[C@@H](CO)O1)NCc1ccc(Oc2ccccc2)cc1 | 19.5 µM
O=C(C[C@@H]1CC[C@@H]2[C@H](COC[C@@H](O)CN2Cc2ccc(Oc3ccccc3)cc2)O1)N1CCc2ccccc2C1 | 8.89 µM
O=C(C[C@@H]1C[C@@H]2c3cc(NS(=O)(=O)c4ccc(F)cc4)ccc3O[C@@H]2[C@@H](CO)O1)NCc1ccc(Oc2ccccc2)cc1 | 16.7 µM
CC(C)(C)[S@@](=O)N1Cc2cc(C(=O)NCc3ccccc3F)nc(-c3cccc(-c4ccncc4)c3)c2[C@H]1CCO | 9.63 µM
O=C(C[C@@H]1C[C@@H]2c3cc(NC(=O)c4ccc5c(c4)OCO5)ccc3O[C@@H]2[C@@H](CO)O1)NCc1ccc(Oc2ccccc2)cc1 | 14.2 µM
CC(C)(C)[S@](=O)N1Cc2cc(C(=O)NCC(F)(F)F)nc(-c3cccc(-c4cccc(F)c4)c3)c2[C@@H]1CCO | 8.65 µM
O=C(C[C@H]1C[C@H]2c3cc(NC(=O)c4ccc5c(c4)OCO5)ccc3O[C@H]2[C@H](CO)O1)NCc1ccc(Oc2ccccc2)cc1 | 30 µM
C[C@@H]1CN([C@@H](C)CO)S(=O)(=O)c2ccc(C#Cc3ccncc3)cc2O[C@H]1CN(C)C(=O)Nc1ccc2c(c1)OCO2 | 21.4 µM
CC(C)(C)[S@@](=O)N1Cc2cc(C(=O)NCc3ccccn3)nc(-c3cccc(-c4ccccc4F)c3)c2[C@H]1CCO | 26.1 µM
COc1ccc(CNC(=O)c2cc3c(c(-c4cccc(-c5ccc(C#N)cc5)c4)n2)[C@@H](CCO)N([S@](=O)C(C)(C)C)C3)cc1 | 19.5 µM
COc1ccccc1C#Cc1ccc2c(c1)O[C@H](CN(C)Cc1cccnc1)[C@@H](C)CN([C@@H](C)CO)S2(=O)=O | 26.6 µM
N#C[C@@H]1[C@H](c2ccc(C#Cc3ccccc3F)cc2)[C@@H](CO)N1C(=O)c1cccnc1 | 2.04 µM
CN1C(=O)c2cc(NC(=O)Cc3cccs3)ccc2OC[C@@H]2O[C@H](CC(=O)NCc3ccc(-c4ccccc4)cc3)CC[C@H]21 | 33.6 µM
N#C[C@H]1[C@H](c2ccc(C#Cc3ccccc3F)cc2)[C@H](CO)N1C(=O)c1cccnc1 | 31.3 µM
O=C(C[C@@H]1CC[C@@H]2[C@H](COC[C@@H](O)CN2Cc2ccc3c(c2)OCO3)O1)Nc1ccc(-c2ccccc2)cc1 | 11.2 µM
CN(C)C(=O)c1ccc(-c2cccc(-c3nc(C(=O)NCc4ccccc4)cc4c3[C@@H](CCO)N([S@](=O)C(C)(C)C)C4)c2)cc1 | 10.7 µM
N#C[C@H]1N[C@H](CO)[C@H]1c1ccc(C#Cc2ccccc2F)cc1 | < 0.26 µM
Cc1ccc(S(=O)(=O)N(C)C[C@H]2Oc3cc(C#Cc4ccncc4)ccc3S(=O)(=O)N([C@@H](C)CO)C[C@@H]2C)cc1 | 10.2 µM
N#C[C@H]1[C@@H](c2ccc(-c3cccnc3)cc2)[C@@H](CO)N1C(=O)Nc1ccc(F)cc1 | 16.9 µM

Reference: PubChem BioAssay AID624369 (Broad Institute, 2012)
